One data set has as its system HEK293 cells. The data set can be described thus: Protection against thapsigargin (TG)-induced cell death, HEK293. Format: cell-based, human. The settings on record: compound 20 μM; thapsigargin 15 μM; 24 hrs. As for the experimental part:
Protection against Thapsigargin (TG)-induced Cell-death. Human embryonic kidney (HEK293) cells were grown in Dulbecco's Modified Eagle's Medium (DMEM) with 10% FBS and 1% antibiotic antimycotic solution (ABAM). Mouse neuroblastoma (N2a) cells were grown in 1:1 DMEM:OPTI-MEM® with 5% FBS and 1% ABAM. All cells were grown in 10% CO2 in a humidified environment of the incubator. Cells grown in 96-well plates were exposed to a test compound (20 μM) for 2 hrs before addition of thapsigargin (15 μM for HEK293 cells and 1 μM for N2a cells) to induce ER stress. After incubation in cell-culture incubator for 24 hrs, ALAMARBLUE® regent (10% v/v) was added to the wells. Fluorescence reading was taken 2 hrs after the addition of the ALAMARBLUE® regent. Cell-viability was calculated as a percentage of relative fluorescence unit (RFU) compared to control.
The results are summarized in Table 2, where A represents a value greater than 50% cell rescue, B represents a value between 10% to 50% cell rescue, C represents a value between 1% to 10% cell rescue, and D represents a value no greater than 1% cell rescue.

Another data set has as its system N2a cells. The data set can be described thus: Protection against hydrogen peroxide-induced cell death, N2a. It is filed as cell-based, mouse. The settings on record: compound 40 μM; hydrogen peroxide 200 μM. In short, it runs like this: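 N2a cells were pretreated 2 h with compound at 40 μM, then exposed to 200 μM H2O2 for 40 min. AlamarBlue (10% v/v) was added and fluorescence read 2 h later. Viability expressed as % RFU of control, reported as % cell rescue.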

A further data set concerns Ca^2+-ATPase. The data set can be described thus: Ca2+-ATPase assay, microsomal preparations from HEK 293 cells. Format: biochemical, human. As for the experimental part: A Ca^2+-ATPase assay was performed using microsomal preparations from HEK 293 cells at a series of calcium concentrations corresponding to the physiological range, relative to controls. The ATP hydrolysis rate was measured over a range of calcium concentrations in the presence of test compounds using an NADH-linked, enzyme-coupled ATPase assay adapted for 96-well microplates, with Vmax determined by fitting the ATPase calcium-dependence to the Hill function. […] CaCl2 was added to set free [Ca^2+] to the specific values.

For a further data set, the system named is ob/ob mice. The data set can be described thus: Effect on the level of blood glucose in ob/ob mice. Format: in vivo, mouse. Particulars: for blood glucose: 10 or 50 mg/kg i.p. once a day for 5 days, as early as day 2; for glucose level after the last injection: for over a week after the last injection. The procedure: Fasting glucose was measured at baseline and 10 hours after the administration of the test compound. Glucose levels were measured in blood samples drawn from the tail vein using the OneTouch Ultra 2 Meter (LifeScan, Inc.).

For another data set, the system named is human islet microtissues. The data set can be described thus: Protection of human pancreatic islets under cytokine stress. The settings on record: 168 h, compound 5 μM, cytokine cocktail IL1-β, IFN-γ, TNF-α, 7 days, read-out: increase in viability over baseline (total ATP content). Format: cell-based. As for the experimental part: Human pancreatic islet microtissues treated with cytokines were used to model the conditions of Type 1 Diabetes in vitro. This study tested the effects of compounds on […] viability in human islets under cytokine stress. The model consisted of human islet microtissues from an HLA-A2 positive donor grown and separated in a 96-well plate (1 microtissue per well). The microtissues were treated for 7 days with a cocktail of cytokines (IL1-β 5 ng/mL, IFN-γ 25 ng/mL, TNF-α 25 ng/mL) and compound (5 μM) or vehicle. There were 6 microtissues treated per compound or vehicle. At day 7, the total ATP content was measured using CellTiter-Glo (Promega).

Another data set relates to livers of ob/ob mice. The data set can be described thus: Reduction of ER stress markers in liver of ob/ob mice (western blot). It is filed as in vivo, mouse. The settings on record: 50 mg/kg. The procedure:
Proteins were analyzed by western blot and quantified. Bands were normalized to GAPDH and expressed as 100% of ob/ob+vehicle (ob). Liver tissues were homogenized with a bench-top homogenizer in an ice-cold tissue lysis buffer. The homogenized samples were centrifuged at 8,000×g for 20 min at 4° C. The lipid layer was removed and the supernatant was transferred into Eppendorf tubes. After centrifuging at 16,000×g for 60 min at 4° C., the supernatants were normalized to the same concentration and boiled at 100° C. in 1× Laemmli buffer for 5 min. The lysate was cooled to room temperature before loading for Western blot analysis. Protein lysate was resolved on SDS polyacrylamide gel and transferred onto PVDF membrane at a voltage of 100 V for 2 hrs at 4° C. The membrane was blocked in 10% blocking reagent and incubated overnight with a primary antibody in Tris-buffered saline solution/Tween (TBST)/10% blocking reagent at 4° C. After incubation, the membrane was washed three times in TBST for 20 min and incubated at room temperature with a secondary antibody in TBST/10% blocking reagent for 1 hr. The membrane was washed three times for 20 min and developed using a chemiluminescence assay system. To strip a membrane for another primary antibody, the membrane was agitated at 50° C. for 20 min in a box with stripping buffer (2% SDS and 100 mM 2-mercaptoethanol in TBS, pH 7.5). […]

Data set [1] is described as follows: Pharmacokinetics in CD-1 mice. Format: in vivo, mouse. The settings on record: for F / AUC / Cmax / half-life: CD-1 mice; for F: 10 mg/kg P.O. vs 2 mg/kg i.v.; for AUC / Cmax / half-life: mouse, plasma, 2 mg/kg i.v. or 10 mg/kg P.O. Put shortly: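 CD-1 mice (triplicate) dosed 2 mg/kg i.v. or 10 mg/kg oral gavage, formulated 1 mg/mL in DMSO/Tween 80/water (10/10/80). EDTA plasma sampled 0.25–24 h, acetonitrile-precipitated and quantified by positive-ion MRM LC/MS/MS against internal standard; PK parameters fitted from concentration–time data.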

In general, viability refers to a read-out of living cells in per cent, often relative to untreated cells. The AUC is concentration integrated over time. A higher AUC goes with high exposure. For orientation: Cmax means the peak of the concentration-time curve. By half-life is commonly meant the time needed for the level to fall by half in the phase considered. For `Cc1ccc2cccc(NC(=O)c3ccc(OC(C)C)cc3)c2n1` [Compound A12, 4-Isopropoxy-N-(2-methylquinolin-8-yl)benzamide], in the data set on HEK293 cells, the “HEK293 Cells (TG-induced) cell rescue” value was “A (A represents a value greater than 50% cell rescue)”. Besides, in the data set on N2a cells, the “N2a Cells (H2O2-induced) cell rescue” value is given as “B (B represents a value between 10% to 50% cell rescue)”. In addition, the “increase in baseline ATPase activity” value with Ca^2+-ATPase was 10-15%. Besides, in the data set with ob/ob mice, the blood glucose result is given as “significantly lowered” and the “glucose level after the last injection” value was “identical to lean mice”. Also, the viability at 5 µM in the data set with human islet microtissues lay within 20 to 50%. Moreover, the “phosphorylation of PERK and elF2α” value in the data set with livers of ob/ob mice is “significantly reduced”. In data set [1], the F is listed as 2.3%, the AUC was found to be 25.1 ng·h/mL, the peak level (Cmax) was 200 nM and the half-life is 13.4 min.

For the compound `Cc1ccc2cccc(NC(=O)c3ccc(N(C)C)cc3)c2n1` [Compound C18, 4-N,N-Dimethylamino-N-(2-methylquinolin-8-yl)benzamide], in the data set on HEK293 cells, the “HEK293 Cells (TG-induced) cell rescue” value is recorded as “A (A represents a value greater than 50% cell rescue)”. In addition, the “N2a Cells (H2O2-induced) cell rescue” value with N2a cells is “B (B represents a value between 10% to 50% cell rescue)”. In addition, the “increase in baseline ATPase activity” value with Ca^2+-ATPase is “greater than 15%”. In the data set on ob/ob mice, the blood glucose result was “significantly lowered” and the “glucose level after the last injection” value is “identical to lean mice”. The viability at 5 µM with human islet microtissues was above 50%. For the same compound, the “phosphorylation of PERK and elF2α” value with livers of ob/ob mice is listed as “significantly reduced”. Besides, in data set [1], the F is 35%, the AUC stood at 380 ng·h/mL, the Cmax was 900 nM and the half-life is 53.4 min. The “pharmacokinetic properties as measured by CMAX, AUC and F (%)” value in data set [1] (compared with other SERCA modulators, see Table 6) is on record as “significantly improved pharmacokinetic properties”.
